The results in this text go back to ChEMBL document CHEMBL1201862, “PubChem BioAssay data set” (2004).

As usually defined, the AC50 is the concentration at which the activity in the assay is half-maximal. A word on the IC50: it is the concentration needed to halve the response being measured.

Each structure is given as a SMILES string. Activity calls are given as the source filed them. Rule as the data show it, for most assays here: actives have a measured EC50 and inactives only a lower limit.

A short description of test [1]: Trypanosoma cruzi growth suppression in host cells – NIH3T3 host cells, beta-gal luminescence, confirmation (AID 2044).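 Also: intracellular parasites grown in NIH/3T3 mouse fibroblasts as host cells; luminescent beta-galactosidase reporter signal from transgenic T. cruzi replicating inside host cells; inhibitors lower the luminescence signal.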 The format is functional, cell-based.
Test [2] is described as follows: NIH3T3 cell viability loss – ATP luminescence, mouse fibroblasts, counter-screen, dose response (AID 2010).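 Also: cells exposed to compound for about 90 hours before reading.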 The test is classed as functional, cell-based. In general terms: A counterscreen serves to expose hits that act by an unwanted route or on another target.
Test [3] addresses T1, Replicative DNA helicase DnaB (Mycobacterium tuberculosis, UniProt P9WMR3).
T1 sequence (P9WMR3 whole entry): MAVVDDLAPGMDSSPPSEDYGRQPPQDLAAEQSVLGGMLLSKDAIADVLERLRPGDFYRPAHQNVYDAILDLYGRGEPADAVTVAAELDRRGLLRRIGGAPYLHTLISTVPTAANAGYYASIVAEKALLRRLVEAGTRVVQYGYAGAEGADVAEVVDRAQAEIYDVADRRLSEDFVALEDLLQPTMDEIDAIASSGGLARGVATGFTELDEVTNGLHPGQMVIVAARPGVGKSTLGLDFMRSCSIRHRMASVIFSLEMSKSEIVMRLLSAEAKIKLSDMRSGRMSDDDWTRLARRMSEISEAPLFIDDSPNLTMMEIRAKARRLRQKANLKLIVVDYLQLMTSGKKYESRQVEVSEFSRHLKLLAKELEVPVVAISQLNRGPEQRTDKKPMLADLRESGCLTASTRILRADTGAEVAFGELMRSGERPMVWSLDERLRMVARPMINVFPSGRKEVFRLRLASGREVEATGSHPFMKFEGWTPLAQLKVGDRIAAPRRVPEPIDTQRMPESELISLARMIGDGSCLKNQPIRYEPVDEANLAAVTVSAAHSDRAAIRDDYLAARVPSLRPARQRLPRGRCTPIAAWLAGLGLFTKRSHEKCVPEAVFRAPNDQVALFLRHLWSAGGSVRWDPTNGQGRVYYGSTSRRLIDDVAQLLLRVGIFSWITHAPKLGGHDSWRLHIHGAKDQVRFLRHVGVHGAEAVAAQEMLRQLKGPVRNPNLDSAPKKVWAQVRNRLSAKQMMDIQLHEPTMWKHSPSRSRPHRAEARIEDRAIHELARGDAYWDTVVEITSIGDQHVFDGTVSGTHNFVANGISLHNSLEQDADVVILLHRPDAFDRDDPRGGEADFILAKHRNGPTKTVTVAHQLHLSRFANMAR
In words: DnaB intein splicing inhibitors, dose response, biochemical, cell-free fluorescence (AID 449749). The format is functional.

The target of the next test is T2, Protein RecA (Mycobacterium tuberculosis, UniProt P9WHJ3).
T2 sequence (P9WHJ3 whole entry): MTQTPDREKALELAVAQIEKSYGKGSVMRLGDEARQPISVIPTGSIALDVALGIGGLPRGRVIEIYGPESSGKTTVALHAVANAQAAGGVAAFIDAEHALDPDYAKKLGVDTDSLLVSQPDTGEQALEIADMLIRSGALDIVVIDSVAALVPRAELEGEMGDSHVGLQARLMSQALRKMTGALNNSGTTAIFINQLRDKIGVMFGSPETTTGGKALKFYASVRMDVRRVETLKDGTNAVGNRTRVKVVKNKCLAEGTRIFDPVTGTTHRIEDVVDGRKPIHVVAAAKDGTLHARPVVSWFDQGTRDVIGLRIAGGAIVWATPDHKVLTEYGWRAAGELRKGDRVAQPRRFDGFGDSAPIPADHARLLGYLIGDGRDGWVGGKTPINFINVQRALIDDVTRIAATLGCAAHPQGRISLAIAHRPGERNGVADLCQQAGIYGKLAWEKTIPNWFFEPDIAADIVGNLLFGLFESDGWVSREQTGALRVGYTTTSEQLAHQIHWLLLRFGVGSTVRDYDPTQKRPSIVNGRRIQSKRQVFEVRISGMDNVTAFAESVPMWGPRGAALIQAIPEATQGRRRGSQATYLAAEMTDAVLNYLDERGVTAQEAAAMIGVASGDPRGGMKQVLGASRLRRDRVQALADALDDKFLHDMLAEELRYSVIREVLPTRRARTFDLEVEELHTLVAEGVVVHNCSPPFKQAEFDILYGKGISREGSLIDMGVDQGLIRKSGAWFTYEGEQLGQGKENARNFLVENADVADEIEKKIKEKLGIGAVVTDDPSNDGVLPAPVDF
In words: Fluorescence Cell-Free Homogeneous Dose Retest to Identify Inhibitors of RecA-Intein Splicing Activity. [Related pubchem assays (depositor defined):AID2097, AID2223, AID489010, AID492950]. The format is functional.

Another test has as its target Cytochrome P450 2D6 (Homo sapiens, UniProt P10635).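 Also: CYP2D6 member of a cytochrome P450 panel assay.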
Another test addresses Large T antigen (Simian virus 40, UniProt P03070). The format is functional, Betapolyomavirus macacae.
Test [4] addresses T3, Corticotropin-releasing factor receptor 2/Corticotropin-releasing factor-binding protein (Homo sapiens, UniProt P24387+Q13324).
T3 sequence (Q13324 whole entry): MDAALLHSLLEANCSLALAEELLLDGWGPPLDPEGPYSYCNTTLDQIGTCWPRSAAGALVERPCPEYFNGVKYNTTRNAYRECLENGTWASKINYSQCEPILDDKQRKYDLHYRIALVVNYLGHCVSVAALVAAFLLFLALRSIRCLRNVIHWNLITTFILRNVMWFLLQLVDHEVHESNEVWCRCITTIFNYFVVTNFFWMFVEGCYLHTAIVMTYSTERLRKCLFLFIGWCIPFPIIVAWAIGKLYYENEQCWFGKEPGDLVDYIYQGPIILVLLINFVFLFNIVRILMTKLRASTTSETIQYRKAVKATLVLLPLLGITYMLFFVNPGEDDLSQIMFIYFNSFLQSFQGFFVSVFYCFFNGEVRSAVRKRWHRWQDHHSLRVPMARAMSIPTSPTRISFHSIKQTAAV
T3 sequence (P24387 whole entry): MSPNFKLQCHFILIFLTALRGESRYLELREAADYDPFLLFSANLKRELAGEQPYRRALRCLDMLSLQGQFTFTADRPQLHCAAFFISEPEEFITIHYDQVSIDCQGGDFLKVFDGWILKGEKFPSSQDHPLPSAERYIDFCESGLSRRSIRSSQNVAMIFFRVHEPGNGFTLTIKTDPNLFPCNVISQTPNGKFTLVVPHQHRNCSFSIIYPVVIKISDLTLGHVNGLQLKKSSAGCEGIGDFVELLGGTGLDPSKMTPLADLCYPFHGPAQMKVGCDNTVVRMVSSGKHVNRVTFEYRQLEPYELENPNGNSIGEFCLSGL
Put plainly: activators of CRF receptor 2 with binding protein – uHTS hits, confirmation (AID 602473). The test is classed as functional. Particulars: read-out: EC50_Mean.
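For IC50 in this document: Confirmatory-stage PubChem screen for compounds that inhibit SV40 T antigen.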

Sequence of Cytochrome P450 2D6 (P10635 whole entry): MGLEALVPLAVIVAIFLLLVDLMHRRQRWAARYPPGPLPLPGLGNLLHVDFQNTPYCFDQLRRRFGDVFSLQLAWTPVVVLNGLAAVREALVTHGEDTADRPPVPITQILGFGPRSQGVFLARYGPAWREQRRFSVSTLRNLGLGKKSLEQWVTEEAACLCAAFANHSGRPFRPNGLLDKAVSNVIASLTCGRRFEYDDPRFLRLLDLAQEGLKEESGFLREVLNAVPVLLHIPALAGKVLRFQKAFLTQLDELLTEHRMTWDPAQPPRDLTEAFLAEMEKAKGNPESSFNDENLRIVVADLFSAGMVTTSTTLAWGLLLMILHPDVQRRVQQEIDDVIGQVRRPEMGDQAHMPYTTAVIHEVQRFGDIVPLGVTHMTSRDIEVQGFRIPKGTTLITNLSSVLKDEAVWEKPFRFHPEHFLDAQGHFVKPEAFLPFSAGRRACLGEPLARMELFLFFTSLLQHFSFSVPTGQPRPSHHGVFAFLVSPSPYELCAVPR
Sequence of Large T antigen (P03070 whole entry): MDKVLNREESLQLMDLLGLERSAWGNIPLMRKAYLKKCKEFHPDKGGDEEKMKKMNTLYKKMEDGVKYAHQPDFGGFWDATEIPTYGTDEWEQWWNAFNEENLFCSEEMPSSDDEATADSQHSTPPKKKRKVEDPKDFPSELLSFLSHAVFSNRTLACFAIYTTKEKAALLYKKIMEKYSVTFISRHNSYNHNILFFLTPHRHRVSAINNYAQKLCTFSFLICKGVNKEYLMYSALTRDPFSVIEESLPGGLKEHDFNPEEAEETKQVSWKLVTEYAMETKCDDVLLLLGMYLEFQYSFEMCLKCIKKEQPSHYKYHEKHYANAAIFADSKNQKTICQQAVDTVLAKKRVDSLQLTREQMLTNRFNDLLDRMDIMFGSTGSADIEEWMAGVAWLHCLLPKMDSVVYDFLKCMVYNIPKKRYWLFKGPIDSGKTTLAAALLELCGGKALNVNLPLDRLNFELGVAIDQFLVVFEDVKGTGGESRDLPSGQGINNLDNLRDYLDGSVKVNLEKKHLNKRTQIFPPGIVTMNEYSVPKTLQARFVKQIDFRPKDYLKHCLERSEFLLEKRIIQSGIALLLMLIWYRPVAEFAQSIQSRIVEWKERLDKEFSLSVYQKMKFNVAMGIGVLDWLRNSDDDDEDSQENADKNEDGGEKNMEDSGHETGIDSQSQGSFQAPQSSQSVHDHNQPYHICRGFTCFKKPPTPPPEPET

Take `N#C/C(=C(/O)c1ccc([N+](=O)[O-])s1)c1nc2ccccc2[nH]1`: the results for the EC50 in test [1] and in test [2] were 0.233 µM (active) and 4.89 µM (active), respectively.
In the case of `CCC(=O)Oc1ccc(C(=O)Nc2cccc(C(=O)c3ccccc3)c2)cc1`, the AC50 in test [3] is 13.2 µM (active). Further, the EC50 at Protein RecA was 13.8 µM (active).
Take `COc1ccccc1CNc1ncncc1-c1cccnc1`: at Cytochrome P450 2D6, the AC50 is 20 µM (inconclusive).
With `Cn1c(=O)c2c(nc(S)n2Cc2ccc(Cl)cc2)n(C)c1=O`, the IC50 at Large T antigen is 16.2 µM (active).
As for `CC(C)(C)c1[nH]nc2c1C(c1ccoc1)C(C#N)=C(N)O2` (configuration not stated), the AC50 in test [3] was 20.4 µM (active). The EC50 at Protein RecA was 3.58 µM (active).
The corresponding values for `CCOC(=O)N/N=C\c1ccc(OC(=O)c2ccco2)cc1` are 17 µM (active) and 14.5 µM (active).
Consider `CCOC(=O)c1c(NC(=O)CSc2nnnn2C)sc(C)c1C`, for which, on Cytochrome P450 2D6, the AC50 is 25.1 µM (inconclusive).
As for `COc1cc(/C=C2/C(=O)N(c3ccccc3)N=C2C)ccc1OS(=O)(=O)c1ccccc1`, the AC50 in test [3] is 1.94 µM (active). Besides, the EC50 at Protein RecA is 1.5 µM (active).
The corresponding values for `Cc1ccc(-n2nnnc2CCl)cc1` are 54.2 µM (active) and 7.8 µM (active).
Take `COC(=O)[C@@]1(Cc2ccccc2)[C@H]2c3cc(C(=O)N(C)C)n(Cc4ccsc4Br)c3C[C@H]2CN1C(=O)c1ccccc1`: the half-maximal activity concentration (AC50) on Cytochrome P450 2D6 was 31.6 µM (inconclusive).
Turning to `CCCc1[nH][nH]c(=O)c1C(c1cccc(Cl)c1)C(C#N)C#N` (configuration not stated), in test [3], the AC50 is > 380 µM (inactive). The EC50 on Protein RecA was 0.755 µM (active).
In the case of `COC(=O)c1c(NC(=O)CN2CCC3(O)CCCCC3C2c2ccccc2OC)sc(C)c1C` (configuration not stated), in test [4], the EC50 was > 53 µM (inactive).
For `CCOC(=O)/C(=N\Nc1ccccc1Cl)N1CCN(c2ccccc2OC)CC1`, the values for the EC50 in test [1] and in test [2] were 1.18 µM (active) and 33.7 µM (active), respectively.
Regarding `Cc1ccc(-[n+]2cc(=O)o[nH]2)cc1`, at Cytochrome P450 2D6, the AC50 was 1.58 µM (inconclusive).
For `C=CCn1c(SCC(C)=O)nc2scc(-c3ccco3)c2c1=O`, at Large T antigen, the IC50 is 60.2 µM (active).
Take `Cc1ccc(-c2nn(-c3cc(N4CCNCC4)ccc3[N+](=O)[O-])c(=O)c3ccccc23)cc1`: the values for the EC50 in test [1] and in test [2] were 2.04 µM (active) and > 60 µM (inconclusive), respectively.
For `Cc1ccc(S(=O)(=O)CCC(=O)c2cccc([N+](=O)[O-])c2)cc1`, in that order: 2.47 µM (active) and > 60 µM (not active).
For `CCN1C(=O)C2(C(C(=O)c3cc4ccccc4o3)=C(O)C(=O)N2CCCN(C)C)c2ccccc21` (configuration not stated), the IC50 at Large T antigen was 52.4 µM (active).
With `CCN(C(=O)CSc1ncccc1C(=O)Oc1cccc([N+](=O)[O-])c1)c1cccc(C)c1`, the AC50 in test [3] is 3.43 µM (active). Moreover, at Protein RecA, the EC50 was > 380 µM (inconclusive).
`CCCN1CCC[C@@H]2Cc3nc(N)ncc3C[C@H]21` [QUINELORANE]: at Cytochrome P450 2D6, the AC50 was 25.1 µM (inconclusive).
With `O=C(Oc1ccc(Br)cc1C(=S)N1CCCCC1)c1cc([N+](=O)[O-])cc([N+](=O)[O-])c1`, in test [3], the AC50 was 23.9 µM (active). On Protein RecA, the EC50 was 1.71 µM (active).
As to `CC(=O)Nc1ccc(NC(=O)CSc2ncc(C(=O)Nc3ccc(F)cc3)c(=O)n2C)cc1`, the AC50 in test [3] was > 380 µM (inactive). The EC50 on Protein RecA was > 380 µM (inconclusive).
For the compound `CCN1C(=O)C(=CC=CN(C)c2ccccc2)SC1=S`, in test [4], the EC50 is 6.59 µM (active).
For `Nc1ccc(O)c2ccccc12`, the AC50 in test [3] is 16 µM (active). Also, the EC50 at Protein RecA was 10.1 µM (active).
On to `O=C1COC(c2ccccc2O)=NN1CCCN1CCCC1`, for which, at Cytochrome P450 2D6, the AC50 is 3.16 µM (inconclusive).
`C=C(C)COc1ccc(-c2ncncc2-c2ccccc2OC)c(O)c1`: the EC50 in test [1] was 0.544 µM (active); in test [2], > 60 µM (not active).
Turning to `NS(=O)(=O)c1ccc(/N=C/c2c(O)oc3ccccc3c2=O)cc1`, in test [3], the AC50 is > 380 µM (inactive). Also, the EC50 on Protein RecA was > 380 µM (inactive).
Regarding `Cc1cc(C(=O)CN2C(=O)c3ccccc3C2=O)c(C)n1C1CC1`, the AC50 in test [3] is > 380 µM (inactive). For the same compound, the EC50 on Protein RecA is > 380 µM (inactive).
As for `Cc1ccccc1-n1nc2c(c1NC(=O)c1ccc(S(=O)(=O)N(C)C)cc1)CSC2`, the concentration at half-maximal activity (AC50) at Cytochrome P450 2D6 is 28.2 µM (inconclusive).
For the compound `Cc1ccccc1-c1cncnc1Nc1ccc(F)cc1`, the AC50 on Cytochrome P450 2D6 is 39.8 µM (inconclusive).
As for `C/C=C/C(=O)Nc1cccc(C2=NOC3(C2)C[C@@H](C(N)=O)N(C(=O)c2cc([N+](=O)[O-])cc([N+](=O)[O-])c2C)C3)c1` (some centres not stated), the EC50 in test [4] was > 53 µM (inactive).
Consider `CN1CCN(/N=C/c2ccc(-c3ccc([N+](=O)[O-])cc3Cl)o2)CC1`, for which the EC50 is 0.474 µM (active) in test [1] and > 60 µM (inconclusive) in test [2].
On to `CC(C)c1ccc(C2C3=C(CC(C)(C)CC3=O)N=C3C2=C(O)c2ccccc23)cc1` (configuration not stated), for which the EC50 in test [1] was 1.68 µM (active); in test [2], > 60 µM (not active).
For `COc1ccc([C@@H](C)c2cc3c(cc2O)OCO3)cc1`, the AC50 at Cytochrome P450 2D6 was 3.98 µM (inconclusive).
Consider `CC(C)N1CCc2c(sc(NC(=O)c3ccc(S(=O)(=O)N4CCOCC4)cc3)c2C#N)C1`, for which, in test [4], the EC50 is 5.69 µM (active).
Turning to `COc1ccccc1/N=C/C=C1OC(C)(C)C(C)(C)O1`, the EC50 in test [1] is 3.65 µM (active); in test [2], > 60 µM (not active).
`CCOc1ccc(C(c2c(C)n[nH]c2O)c2c(C)n[nH]c2O)cc1OCC`: in test [3], the AC50 was 0.412 µM (active). Besides, the EC50 on Protein RecA is 0.183 µM (active).
The corresponding values for `CC1=NNC(=O)C1C(c1ccccc1)C(C#N)C#N` (configuration not stated) are 5.23 µM (active) and 3.84 µM (active).
`COc1ccc2[nH]c(C)c(CCN(Cc3cccs3)C(S)=Nc3cccc(F)c3)c2c1`: the EC50 is 3.35 µM (active) in test [1] and > 60 µM (not active) in test [2].
